# Results published in patent US12661355B2, “Compounds and methods for inducing UCP1 expression” (The Regents of the University of California, priority 2020, dated 2026).
# Columns and labels:
# [1] = test system: p38 MAPK; test: CETSA in brown adipocytes, p38 MAPK; assay type: binding, mouse; conditions: 10 μM for 8 h
# Experimental: CETSA assays were performed according to known methods. Briefly, differentiated brown adipocytes (one 10 cm dish per treatment) were treated with vehicle or compounds, trypsinized, counted, and re-suspended in approximately 450 μl PBS containing protease inhibitors (volumes were adjusted to have the same number of cells in each treatment). For each sample, 18 μl was distributed into each of 7 PCR tubes. Samples were heated using a thermocycler with a temperature gradient (iCycler, Biorad) for 3 min, followed by 3 min at room temperature, and then snap-frozen in liquid N2. After two freeze-thaw cycles, samples were centrifuged at 20,000 g for 15 min at 4° C., and the supernatants were transferred to another set of tubes. Proteins were analyzed by immunoblotting.
# The potential interaction of Z160 with PKA subunits and AKAPs was assessed first by identifying which PKA subunits and AKAP isoforms are normally present in BAT. […] To perform the CETSA assays, cultured brown adipocytes were incubated with 10 μM Z160 for 8 h, after which the thermal shift was analyzed by Western blot.
# [2] = test system: PKA; test: PKA activity ELISA, cell or tissue lysates treated 30 min; assay type: biochemical, mouse; conditions: 30 min; for PKA activity: brown adipocyte lysate
# Experimental: PKA kinase activity was measured with an ELISA that utilized a synthetic peptide as substrate for PKA and a polyclonal antibody that recognizes the phosphorylated form of the substrate (ab139435, Abcam). PKA activity was measured in lysates from cultured brown adipocytes, mouse BAT, or liver. Cells and tissues were lysed in 20 mM MOPS, 5 mM EGTA, 2 mM EDTA, and 0.1% Triton X-100 supplemented with protease and phosphatase inhibitor as described above. Protein concentration was determined by Bradford assay and 10 μg of cells, 0.25 μg of BAT extract, or 0.5 μg of liver extract were assessed for PKA activation according to the manufacturer's instruction, with minor changes. Briefly, vehicle or Z160 was incubated with brown adipocyte cells overnight or with protein lysates for 30 min, followed by one wash before the primary antibody, 60 min incubation with the primary antibody, 30 min incubation with the secondary antibody, and by 10 min washing. Absorbance was measured after the substrate was added for 20-60 min, depending the intensity of the signal.
# [3] = test system: human white adipocyte cell line; test: Cellular respiration in human white adipocytes; assay type: cell-based; conditions: 10 μM for 4 days
# Experimental: Human immortalized brown and white preadipocytes were obtained from Dr. Yu-Hua Tseng (Joslin Diabetes Center, Harvard Medical School, USA). The generation of the two cell lines from human neck adipose tissue biopsies and immortalization was performed as previously described but from a different donor. Cells were cultured in high glucose DMEM supplemented with 10% FBS and antibiotics. Two days after reaching confluence, cells were treated with 30 μM biotin, 500 nM insulin, 17 μM pantothenate, 100 nM dexamethasone, 2 nM 3,3′,5-Triiodo-L-thyronine, 500 μM IBMX, 30 μM indomethacin and 1 μM rosiglitazone, for 12 days. […]
# Cellular respiration was measured using a Seahorse XF24 or XF96 analyzer (Agilent) following known protocols Immortalized brown adipocytes were differentiated in 6-well plates and replated in the Seahorse XF24 plates at a density of 50,000 cells per well using trypsin and collagenase type II. […] Oxygen consumption rates were measured before and after the sequential injection of 1 μM oligomycin, 1 μM FCCP, and 0.5 μM rotenone/antimycin A. For these cells, results were normalized to cell count determined by nuclei fluorescent staining with Hoescht staining imaged on Cytation 5 Imaging Reader and analysis with Gen5 software (BioTek). […] Maximal respiration was determined after FCCP injection.
# [4] = test system: immortalized brown adipocytes; test: Global gene expression analysis (microarray, DAVID functional annotation) in immortalized brown adipocytes; assay type: cell-based, mouse
# Experimental: Mouse RNA levels were measured by qPCR according to known methods. Data were normalized to B2m and Tbp reference genes. Human RNA was extracted using an RNA Mini Plus kit (Zymo) and gene expression determined by Taqman assay. The 1-step qPCR was run on a QuantStudio 12K Flex Real Time PCR System (ThermoFisher) using the following protocol: 50° C. for 5 minutes, 95° C. for 20 seconds, 40 cycles of 95° C. for 15 seconds and 60° C. for 60 seconds. Data were normalized to PPIA and PSMB2 reference genes. For global gene expression analysis, RNA isolated from brown adipocytes treated with compounds as indicated (four biological replicates) was hybridized to Illumina mouse Ref 8 V2.0 bead chips at the University of California, Los Angeles Neuroscience Genomics Core as previously described. Data were processed with GenomeStudio V2011.1 using the quantile normalization, background subtraction, and a present call of P<0.05.
# To assess the effects of Z160 on global transcription in mouse brown adipocytes, microarray analysis of RNA isolated from immortalized brown adipocytes treated with either vehicle or Z160 was performed. […] The results of the microarray were corroborated using qPCR for representative genes from each electron transport chain complex (FIG. 5B).
# [5] = genes >1.5-fold down-regulated, DAVID
# [6] = genes >1.5-fold up-regulated, DAVID
structure (smiles),measurement,setting,value
COc1ccc(NC(=O)CSc2nc3ccccc3c(=O)[nH]2)c(OC)c1 [Z160],heat stability of p38 MAPK,[1],did not influence the heat stability
same,PKA activity,[2]; 25 μM,significant increase
same,PKA activity,[2]; 50 μM,significant increase
same,PKA activation,"[2]; mouse BAT extract, 25 μM",stimulated PKA activation
same,PKA activation,"[2]; mouse liver extract, 25 μM",stimulated PKA activation
same,maximal respiration,[3],increased
same,mitochondrial respiration (uncoupled),[3],increased
same,"Genes, GO cellular component Down: Basement membrane",[4]; [5],17
same,"Genes, GO cellular component Down: Cell surface",[4]; [5],45
same,"Genes, GO cellular component Down: Cytoplasm",[4]; [5],178
same,"Genes, GO cellular component Down: Extracellular exosome",[4]; [5],119
same,"Genes, GO cellular component Down: Extracellular region",[4]; [5],86
same,"Genes, GO cellular component Down: Extracellular space",[4]; [5],72
same,"Genes, GO cellular component Down: Focal adhesion",[4]; [5],25
same,"Genes, GO cellular component Down: Proteinaceous extracellular matrix",[4]; [5],35
same,"Genes, GO cellular component Up: Mitochondrial inner membrane",[4]; [6],27
same,"Genes, GO cellular component Up: Mitochondrion",[4]; [6],88
same,Ucp1 increase (microarray),"[4]; microarray, vs vehicle",2.5 fold
same,probes down-regulated by at least 1.5-fold,"[4]; microarray, vs vehicle",504 probes
same,probes up-regulated by at least 1.5-fold,"[4]; microarray, vs vehicle",581 probes
